The results in this text go back to PMC3895568, “Isolation and characterization of Leucine dehydrogenase from a thermophilic Citrobacter freundii JK-91strain Isolated from Jask Port” (Iranian Journal of Microbiology, 2013).

This experiment deals with T1, LeuDH (Leucine dehydrogenase, EC 1.4.1.9).
T1 construct: native enzyme purified from isolate JK-91 (ammonium sulfate, DEAE-Toyopearl, TSK gel G3000SW); subunit 40 kDa, about 320 kDa, octamer
In words: NADH formation at […] nm, oxidative deamination. It is filed as biochemical, Citrobacter freundii. The settings on record: co-substrate NAD+; standard assay 50 mM glycine-NaOH pH 10.4, 100 mM NaCl, 2.5 mM NAD+; exact conditions and temperature of the kinetics not stated.

What is called Km is the concentration of substrate that gives half-maximal velocity.

On to `CC(C)C[C@H](N)C(=O)O` [L-leucine], for which the Michaelis-Menten constant (Km) stood at 1200 µM.
